Reference: patent US20260125686A1, “COMPOSITIONS AND METHODS FOR MODULATION OF CFTR” (Cystic Fibrosis Foundation, priority 2022, published 2026)

System: Exon 22 truncated CFTR mRNA
Assay: ddPCR of Exon 22 truncated CFTR mRNA in 16HBEge-W1282X cells
Format: cell-based, human
Settings: for Exon 22 truncated CFTR mRNA: 16HBEge-W1282X (FIG. 13A); for expression of Exon 22 truncated CFTR mRNA enhanced by: ASO alone vs no ASO treatment (FIG. 13A); for fold change increase in E22 trunc mRNA levels relative to (−) ASO (100 μM): in combination SA-08 10 μM
Experimental: Free uptake ASO treatments in 16HBEs. Steric blocking ASOs were purchased from IDT with Phosphorothioate (PS) backbone and 2-O-Methoxyethyl (2′-MOE) modifications at each nucleotide. Lyophilized steric blocking ASOs were resuspended in PBS+Mg+Ca to 1 mM and stored in frozen aliquots to minimize the effects of freeze thaw cycles. 16HBEge and 16HBE14o- lines were seeded at 0.150×10^6 cells/well in 24 well plates and grown at 37° C./5% CO2 in MEM supplemented with 10% FBS and 1% Penicil-lin/Streptomycin. After 24 hours, media was refreshed with addition of ASOs and RNA was harvested after 48 hours of treatment.
ddPCR Isoform Quantification. RNA was isolated from treated cells with the Aurum Total RNA Mini Kit. One Step reverse transcriptase and quantitative PCR was performed with the iTaq Universal Probes One Step Kit. All qPCR was run on the CFX Touch Deep Well real-time PCR detection system and analyzed with Bio-Rad CFX Maestro 1.0 software (version 4.0.2325.0418). ddPCR assays were composed of: cDNA or digested genomic DNA, 2×ddPCR Supermix for Probes (no dUTP) (1× final) (Bio-Rad), 40× as-say (1× final), and nuclease free water in 20 μl total reaction volume. cDNA synthesis was performed with the iScript Advanced cDNA Synthesis Kit for RT-qPCR (Bio-Rad). Droplets were generated with QX200 Droplet Digital PCR System (Bio-Rad), cycled in the CFX Touch Deep Well real-time PCR detec-tion system (Bio-Rad), and analyzed with the QX200 Droplet Digital PCR system Droplet Reader. (Bio-Rad). Data was analyzed with the Quantasoft software version 1.7.4. ddPCR probes designed to the junction of exon 25/26 were used as a proxy of full-length WT or W1282X CFTR mRNA and probes de-signed to exon 22/intron 22 junction including the first 140 bp of intron 22 were used as a proxy of ex-on 22 truncated CFTR mRNA.
16HBEge-W1282X cells were treated with exemplary ASOs according to some embodiments of the present disclosure. In some cases, the exemplary ASOs were administered at various doses alone, in combination with other ASOs at various doses, or co-administered with Trikafta, and a plurality of assays were used to assess the effects of the ASO treatments in 16HBEge-W1282X cells.
Exon 22 truncated CFTR mRNA was assayed using ddPCR, as depicted in FIGS. 13A-13B. 16HBEge-W1282X cells were treated with SA08 alone, SD10 alone, or SA08 in combination with SD10 at various doses, in the presence of DMSO vehicle control or Trikafta. As depicted in FIG. 13A, Exon 22 truncated CFTR mRNA was increased in all groups treated with exemplary ASO(s) compared to no ASO treatment. Separate treatment of SA08 alone and SD10 alone enhanced the expression of Exon 22 truncated CFTR mRNA by about 100% and by over 200%, from less than 20000 copies per 40 ng RNA to about 30000 copies and about 65000 copies per 40 ng RNA, respectively. The combination of SA08 and SD10 further enhanced the expression of Exon 22 truncated CFTR mRNA to about 80000 copies per 40 ng RNA. […] Full length CFTR W1282X mRNA levels were unchanged in SD-10 & SA-08 or combination treatment compared to untreated or (−) ASO (100 μM) control. (−) ASO (100 μM) E22 trunc mRNA levels were also unchanged compared to untreated cells. […] SD-10 & SA-08 or combination treatments induced a 4.5×, 5.1×, 6.6×, and 7.3× fold change increase in E22 trunc mRNA levels relative to (−) ASO (100 μM) with SD-10 (10 μM), SD-10 (100 μM), SD-10 (10 μM) & SA-08 (10 μM), and SD-10 (100 μM) & SA-08 (10 μM) respectively.

Substance | Exon 22 truncated CFTR mRNA | expression of Exon 22 truncated CFTR mRNA enhanced by (16HBEge-W1282X) | amount of Exon 22 truncated CFTR mRNA compared to no ASO treatment (16HBEge-W1282X, listed as SA08) | amount of Exon 22 truncated CFTR mRNA compared to no ASO treatment (16HBEge-W1282X, listed as SA-08) | amount of Exon 22 truncated CFTR mRNA compared to no ASO treatment (16HBEge-W1282X) | amount of Exon 22 truncated CFTR mRNA compared to no ASO treatment (16HBEge-W1282X, listed as SD-10) | fold change increase in E22 trunc mRNA levels relative to (−) ASO (100 μM) (SD-10 10 μM, 16HBEge-W1282X) [×] | fold change increase in E22 trunc mRNA levels relative to (−) ASO (100 μM) (SD-10 100 μM, 16HBEge-W1282X) [×] | expression of Exon 22 truncated CFTR mRNA, effect of Trikafta treatment (16HBEge-W1282X, all groups)
ataaggtaaaagtgatgggatc (antisense ATAAGGTAAAAGTGATGGGATC; all 2'-MOE, all phosphorothioate, methylation of C not given here) [SA8, PS backbone, 2′-MOE] | about 30000 copies per 40 ng RNA | about 100% | increased | significantly increase |  |  |  |  | 
aaagcaagcagtgttcaaatct (antisense AAAGCAAGCAGTGTTCAAATCT; all 2'-MOE, all phosphorothioate, methylation of C not given here) [SD10, PS backbone, 2′-MOE] | about 65000 copies per 40 ng RNA | over 200% |  |  | increased | significantly increase | 4.5 | 5.1 | 
elexacaftor/ivacaftor/tezacaftor [Trikafta] |  |  |  |  |  |  |  |  | did not significantly alter
